Data as given in ChEMBL document CHEMBL4507326, “Data for DCP probe TP-030-2” (2021).

What was measured:
[1] = target: Glucocorticoid receptor (Homo sapiens) (UniProt P04150); details: Compound concentration 10.0 uM
[2] = target: Ribosomal protein S6 kinase alpha-2 (Homo sapiens, UniProt Q15349); experiment: RSK3(R6A1CGE1) Takeda global kinase panel
[3] = target: Dual specificity protein kinase CLK2 (Homo sapiens, UniProt P49760); experiment: CLK2(CLK2LGF1) Takeda global kinase panel
[4] = target: Glutamate NMDA receptor (Rattus norvegicus) (UniProt P35439+Q00959+Q00960+Q00961+Q62645+Q8VHN2+Q9R1M7); details: Compound concentration 10.0 uM
[5] = target: Serine/threonine-protein kinase N2 (Homo sapiens, UniProt Q16513); experiment: PKN2 [PRK2(PKN2LGG5)] Takeda global kinase panel
[6] = target: 5-hydroxytryptamine receptor 2C (Homo sapiens) (UniProt P28335); details: Compound concentration 10.0 uM
Aurora kinase A = Aurora kinase A (Homo sapiens, UniProt O14965); experiment: AurA [Aur2(AURALGF1)] Takeda global kinase panel
[7] = target: Casein kinase I isoform alpha (Homo sapiens, UniProt P48729); experiment: CK1alpha(C1A1PHY1) Takeda global kinase panel
[8] = target: Serine/threonine-protein kinase 3 (Homo sapiens, UniProt Q13188); experiment: MST2(STK3LGF1) Takeda global kinase panel
[9] = target: Muscarinic acetylcholine receptor M1 (Homo sapiens) (UniProt P11229); details: Compound concentration 10.0 uM
[10] = target: L-type calcium channel, benzothiazepine site (Cav1.2 alpha-1C) (Homo sapiens, UniProt Q13936); experiment: Inhibition of Calcium Channel L-Type, Benzothiazepine at 10 µM in the Eurofins-Panlabs radioligand binding assay (Eurofins_assay_214510); parameters: ligand concentration 2 nM, non-specific ligand with concentration 10 µM Diltiazem, incubation time 3h, incubation temperature 4 °C; details: male, Wistar, rat, rat whole brain preparation, probe [3H] Diltiazem; compound concentration 10 uM; target entry is the homologue from another species
Ephrin type-B receptor 2 = Ephrin type-B receptor 2 (Homo sapiens, UniProt P29323); experiment: EphB2(EPB2LGY1) Takeda global kinase panel
Ephrin type-A receptor 1 = Ephrin type-A receptor 1 (Homo sapiens, UniProt P21709); experiment: EphA1(EPA1LGY1) Takeda global kinase panel
Ephrin type-A receptor 7 = Ephrin type-A receptor 7 (Homo sapiens, UniProt Q15375); experiment: EphA7(EPA7LGF1) Takeda global kinase panel
[11] = target: Mu-type opioid receptor (Homo sapiens) (UniProt P35372); details: Compound concentration 10.0 uM
[12] = target: 5'-AMP-activated protein kinase catalytic subunit alpha-2 (Homo sapiens, UniProt P54646); experiment: AMPKalpha2(PRA2LGY1) Takeda global kinase panel
Activin receptor type-1 = Activin receptor type-1 (Homo sapiens, UniProt Q04771); experiment: ALK2(ACV1LGF1) Takeda global kinase panel
[13] = target: Mitogen-activated protein kinase 8 (Homo sapiens, UniProt P45983); experiment: JNK1(MAP8LGF1) Takeda global kinase panel
[14] = target: Bone morphogenetic protein receptor type-1B (Homo sapiens, UniProt O00238); experiment: BMPR1B(BM1BLGF1) Takeda global kinase panel
[15] = target: Mitogen-activated protein kinase kinase kinase 12 (Homo sapiens, UniProt Q12852); experiment: DLK(M312CGY1) Takeda global kinase panel
[16] = target: D(4) dopamine receptor (Homo sapiens) (UniProt P21917); details: Compound concentration 10.0 uM
[17] = target: MAP kinase-activated protein kinase 2 (Homo sapiens, UniProt P49137); experiment: MAPKAPK2(MPK2LGRH) Takeda global kinase panel
[18] = target: Histamine H2 receptor (Homo sapiens) (UniProt P25021); details: Compound concentration 10.0 uM
[19] = target: Serine/threonine-protein kinase Nek9 (Homo sapiens, UniProt Q8TD19); experiment: Nek9(NEK9LGF1) Takeda global kinase panel
[20] = target: Alpha-1D adrenergic receptor (Homo sapiens) (UniProt P25100); experiment: Inhibition of Adrenergic alpha1D at 10 µM in the Eurofins-Panlabs radioligand binding assay (Eurofins_assay_203400); details: Compound concentration 10.0 uM
[21] = target: Macrophage colony-stimulating factor 1 receptor (Homo sapiens, UniProt P07333); experiment: FmS [CSFR(CSF1LGC1)] Takeda global kinase panel
[22] = target: TRAF2 and NCK-interacting protein kinase (Homo sapiens, UniProt Q9UKE5); experiment: TNIK [ZC2(TNIKLGF1)] Takeda global kinase panel
[23] = target: Casein kinase I isoform delta (Homo sapiens, UniProt P48730); experiment: CK1delta(CS1DLGI1) Takeda global kinase panel
[24] = target: D(1A) dopamine receptor (Homo sapiens) (UniProt P21728); details: Compound concentration 10.0 uM
[25] = target: MAP/microtubule affinity-regulating kinase 3 (Homo sapiens, UniProt P27448); experiment: MARK3(MAR3LGO5) Takeda global kinase panel
[26] = target: Cyclin-dependent kinase 12 (Homo sapiens, UniProt Q9NYV4); experiment: CRK7(CD12PHS1) Takeda global kinase panel
[27] = target: GABA-A receptor; anion channel (Rattus norvegicus) (UniProt O09028+P15431+P18506+P18508+P19969+P20236+P23574+P23576+P28471+P28473+P30191+P62813+P63079+P63138+Q91ZM7+Q9ES14); experiment: Inhibition of GABAA, Muscimol, Central at 10 µM in the Eurofins-Panlabs radioligand binding assay (Eurofins_assay_226500); type: protein-complex assay; details: Compound concentration 10.0 uM
[28] = target: Tyrosine-protein kinase CSK (Homo sapiens, UniProt P41240); experiment: CSK(CSK1LGF1) Takeda global kinase panel
[29] = target: Interleukin-1 receptor-associated kinase 3 (Homo sapiens, UniProt Q9Y616); experiment: IRAK3(IRK3PFE1) Takeda global kinase panel
Mus musculus = species on record: Mus musculus; experiment: Inhibition of Phorbol Ester at 10 µM in the Eurofins-Panlabs radioligand binding assay (Eurofins_assay_264500); parameters: ligand concentration 3 nM; details: Compound concentration 10.0 uM
[30] = target: Serine/threonine-protein kinase LATS2 (Homo sapiens, UniProt Q9NRM7); experiment: LATS2(LAT2LGY1) Takeda global kinase panel
[31] = target: Serine/threonine-protein kinase pim-2 (Homo sapiens, UniProt Q9P1W9); experiment: Pim2(PIM2LHY1) Takeda global kinase panel
[32] = target: Fibroblast growth factor receptor 3 (Homo sapiens, UniProt P22607); experiment: FGFR3(FGF3LGF1) Takeda global kinase panel
[33] = target: Dual specificity mitogen-activated protein kinase kinase 6 (Homo sapiens, UniProt P52564); experiment: MKK6 [MAP2K6(M2K6LGF1)] Takeda global kinase panel
Aurora kinase B = Aurora kinase B (Homo sapiens, UniProt Q96GD4); experiment: AurB [Aur1(AURBPGE1)] Takeda global kinase panel
[34] = target: Alpha-2B adrenergic receptor (Homo sapiens) (UniProt P18089); details: Compound concentration 10.0 uM
[35] = target: Sodium-dependent serotonin transporter (Homo sapiens) (UniProt P31645); details: Compound concentration 10.0 uM

Casein kinase I isoform alpha, sequence (P48729 whole entry, canonical isoform): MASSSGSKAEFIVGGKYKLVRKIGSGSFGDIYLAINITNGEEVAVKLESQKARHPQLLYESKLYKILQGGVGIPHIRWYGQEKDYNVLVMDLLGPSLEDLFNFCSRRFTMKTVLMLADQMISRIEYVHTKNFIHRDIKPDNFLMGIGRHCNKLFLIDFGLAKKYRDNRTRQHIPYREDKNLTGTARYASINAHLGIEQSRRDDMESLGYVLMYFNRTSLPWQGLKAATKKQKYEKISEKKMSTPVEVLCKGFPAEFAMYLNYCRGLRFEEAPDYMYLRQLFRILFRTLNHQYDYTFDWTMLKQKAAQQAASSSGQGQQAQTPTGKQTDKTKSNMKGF
L-type calcium channel, benzothiazepine site (Cav1.2 alpha-1C), sequence (Q13936 whole entry): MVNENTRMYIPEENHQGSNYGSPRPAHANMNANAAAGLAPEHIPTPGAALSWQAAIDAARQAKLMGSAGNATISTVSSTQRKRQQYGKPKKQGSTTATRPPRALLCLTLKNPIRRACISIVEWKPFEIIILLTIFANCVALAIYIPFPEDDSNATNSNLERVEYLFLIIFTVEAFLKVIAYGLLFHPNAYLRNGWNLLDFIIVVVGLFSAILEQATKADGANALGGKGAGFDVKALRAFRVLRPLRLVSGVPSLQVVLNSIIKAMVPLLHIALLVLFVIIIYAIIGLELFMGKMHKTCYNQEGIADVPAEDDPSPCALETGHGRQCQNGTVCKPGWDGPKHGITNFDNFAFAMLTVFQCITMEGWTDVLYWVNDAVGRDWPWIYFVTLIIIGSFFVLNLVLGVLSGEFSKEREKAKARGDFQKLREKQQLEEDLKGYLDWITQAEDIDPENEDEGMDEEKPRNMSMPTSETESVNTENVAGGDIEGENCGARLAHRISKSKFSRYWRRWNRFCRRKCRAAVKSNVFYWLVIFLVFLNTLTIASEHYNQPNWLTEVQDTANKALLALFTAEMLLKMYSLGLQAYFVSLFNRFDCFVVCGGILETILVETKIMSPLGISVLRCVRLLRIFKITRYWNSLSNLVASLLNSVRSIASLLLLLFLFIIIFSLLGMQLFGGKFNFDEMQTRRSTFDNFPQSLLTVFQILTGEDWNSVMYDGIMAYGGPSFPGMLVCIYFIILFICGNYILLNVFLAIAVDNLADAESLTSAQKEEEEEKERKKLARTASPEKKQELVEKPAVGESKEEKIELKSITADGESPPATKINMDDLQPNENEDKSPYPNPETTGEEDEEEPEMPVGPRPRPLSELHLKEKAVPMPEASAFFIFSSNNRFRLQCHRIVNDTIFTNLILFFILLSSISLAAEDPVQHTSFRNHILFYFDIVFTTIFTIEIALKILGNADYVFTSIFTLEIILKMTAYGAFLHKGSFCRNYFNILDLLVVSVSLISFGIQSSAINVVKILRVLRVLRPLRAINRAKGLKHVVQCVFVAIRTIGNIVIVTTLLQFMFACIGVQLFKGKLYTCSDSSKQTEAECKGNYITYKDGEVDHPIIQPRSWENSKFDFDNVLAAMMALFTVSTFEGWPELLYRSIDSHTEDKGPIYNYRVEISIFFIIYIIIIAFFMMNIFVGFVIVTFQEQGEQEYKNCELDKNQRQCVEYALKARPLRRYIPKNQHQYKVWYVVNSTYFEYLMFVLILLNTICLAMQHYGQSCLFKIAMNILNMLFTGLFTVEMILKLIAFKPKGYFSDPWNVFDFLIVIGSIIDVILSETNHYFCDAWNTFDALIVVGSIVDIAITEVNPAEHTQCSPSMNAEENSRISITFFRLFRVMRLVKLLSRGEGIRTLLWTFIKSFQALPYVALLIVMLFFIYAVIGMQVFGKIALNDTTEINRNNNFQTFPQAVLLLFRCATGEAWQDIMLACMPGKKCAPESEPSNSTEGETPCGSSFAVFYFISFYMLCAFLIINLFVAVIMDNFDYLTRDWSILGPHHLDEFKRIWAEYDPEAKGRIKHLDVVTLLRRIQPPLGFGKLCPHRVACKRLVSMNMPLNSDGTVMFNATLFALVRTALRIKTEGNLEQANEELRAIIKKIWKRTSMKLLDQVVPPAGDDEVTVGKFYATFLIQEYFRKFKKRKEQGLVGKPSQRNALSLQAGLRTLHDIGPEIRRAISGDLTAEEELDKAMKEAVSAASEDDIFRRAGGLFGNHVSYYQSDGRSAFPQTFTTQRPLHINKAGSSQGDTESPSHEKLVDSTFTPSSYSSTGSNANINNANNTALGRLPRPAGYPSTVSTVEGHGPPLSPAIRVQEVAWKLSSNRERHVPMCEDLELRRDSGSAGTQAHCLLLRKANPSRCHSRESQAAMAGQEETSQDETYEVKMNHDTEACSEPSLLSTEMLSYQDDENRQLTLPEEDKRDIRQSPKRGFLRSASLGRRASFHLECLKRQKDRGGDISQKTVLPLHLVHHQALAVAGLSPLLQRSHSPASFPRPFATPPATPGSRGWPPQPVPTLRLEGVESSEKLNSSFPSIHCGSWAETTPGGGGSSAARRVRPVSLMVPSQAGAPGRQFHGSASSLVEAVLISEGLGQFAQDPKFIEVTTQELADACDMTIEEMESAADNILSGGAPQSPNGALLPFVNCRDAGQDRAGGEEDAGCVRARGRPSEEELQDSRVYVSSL
Histamine H2 receptor (Homo sapiens), sequence (P25021 whole entry): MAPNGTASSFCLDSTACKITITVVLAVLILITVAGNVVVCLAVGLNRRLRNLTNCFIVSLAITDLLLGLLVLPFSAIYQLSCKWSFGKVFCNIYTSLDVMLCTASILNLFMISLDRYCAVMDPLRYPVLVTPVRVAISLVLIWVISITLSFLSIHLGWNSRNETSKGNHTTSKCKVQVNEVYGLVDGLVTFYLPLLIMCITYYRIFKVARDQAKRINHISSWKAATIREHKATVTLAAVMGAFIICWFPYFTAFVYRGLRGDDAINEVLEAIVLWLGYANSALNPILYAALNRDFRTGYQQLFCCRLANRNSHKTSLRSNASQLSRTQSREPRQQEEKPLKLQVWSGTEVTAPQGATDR
Interleukin-1 receptor-associated kinase 3, sequence (Q9Y616 whole entry): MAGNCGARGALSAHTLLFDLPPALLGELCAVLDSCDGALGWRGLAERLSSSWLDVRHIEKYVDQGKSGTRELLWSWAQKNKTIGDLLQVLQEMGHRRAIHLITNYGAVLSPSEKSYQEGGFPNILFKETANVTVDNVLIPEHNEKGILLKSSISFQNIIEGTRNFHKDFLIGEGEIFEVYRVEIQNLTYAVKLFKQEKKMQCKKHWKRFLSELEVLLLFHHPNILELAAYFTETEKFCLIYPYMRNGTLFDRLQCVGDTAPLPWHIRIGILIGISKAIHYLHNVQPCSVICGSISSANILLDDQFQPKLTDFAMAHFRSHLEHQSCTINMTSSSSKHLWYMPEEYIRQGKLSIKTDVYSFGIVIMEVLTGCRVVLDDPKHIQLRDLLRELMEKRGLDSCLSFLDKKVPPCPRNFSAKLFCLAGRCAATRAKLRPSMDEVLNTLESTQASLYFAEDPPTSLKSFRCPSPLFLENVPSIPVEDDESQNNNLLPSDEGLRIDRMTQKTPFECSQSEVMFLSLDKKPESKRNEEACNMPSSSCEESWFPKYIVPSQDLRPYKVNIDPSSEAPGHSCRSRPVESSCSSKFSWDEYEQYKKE
Aurora kinase A, sequence (O14965 whole entry, canonical isoform): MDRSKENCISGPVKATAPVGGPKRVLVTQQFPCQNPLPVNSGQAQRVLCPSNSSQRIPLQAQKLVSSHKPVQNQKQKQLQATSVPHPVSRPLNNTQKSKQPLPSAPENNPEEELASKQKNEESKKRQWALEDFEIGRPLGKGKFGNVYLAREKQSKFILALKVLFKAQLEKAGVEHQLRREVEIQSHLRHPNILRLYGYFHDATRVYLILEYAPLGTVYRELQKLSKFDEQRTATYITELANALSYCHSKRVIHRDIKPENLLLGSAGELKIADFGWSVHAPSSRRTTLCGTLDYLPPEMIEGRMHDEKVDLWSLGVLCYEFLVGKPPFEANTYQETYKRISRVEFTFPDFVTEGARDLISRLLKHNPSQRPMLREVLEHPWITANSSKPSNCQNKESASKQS
5'-AMP-activated protein kinase catalytic subunit alpha-2, sequence (P54646 whole entry): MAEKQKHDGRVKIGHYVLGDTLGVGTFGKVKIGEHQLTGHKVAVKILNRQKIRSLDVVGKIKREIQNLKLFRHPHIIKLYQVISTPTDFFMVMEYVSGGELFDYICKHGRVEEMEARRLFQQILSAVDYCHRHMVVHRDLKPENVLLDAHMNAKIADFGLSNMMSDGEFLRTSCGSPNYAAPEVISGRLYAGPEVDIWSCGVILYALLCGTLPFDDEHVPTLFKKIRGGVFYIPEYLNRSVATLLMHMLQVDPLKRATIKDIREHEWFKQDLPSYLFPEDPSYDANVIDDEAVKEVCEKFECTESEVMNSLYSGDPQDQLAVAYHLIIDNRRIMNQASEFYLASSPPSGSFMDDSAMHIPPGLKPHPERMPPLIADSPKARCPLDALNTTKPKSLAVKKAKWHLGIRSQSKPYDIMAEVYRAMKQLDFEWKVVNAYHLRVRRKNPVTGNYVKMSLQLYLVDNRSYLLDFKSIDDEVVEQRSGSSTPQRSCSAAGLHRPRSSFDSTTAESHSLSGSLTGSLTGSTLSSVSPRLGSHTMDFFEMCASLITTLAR
Muscarinic acetylcholine receptor M1 (Homo sapiens), sequence (P11229 whole entry): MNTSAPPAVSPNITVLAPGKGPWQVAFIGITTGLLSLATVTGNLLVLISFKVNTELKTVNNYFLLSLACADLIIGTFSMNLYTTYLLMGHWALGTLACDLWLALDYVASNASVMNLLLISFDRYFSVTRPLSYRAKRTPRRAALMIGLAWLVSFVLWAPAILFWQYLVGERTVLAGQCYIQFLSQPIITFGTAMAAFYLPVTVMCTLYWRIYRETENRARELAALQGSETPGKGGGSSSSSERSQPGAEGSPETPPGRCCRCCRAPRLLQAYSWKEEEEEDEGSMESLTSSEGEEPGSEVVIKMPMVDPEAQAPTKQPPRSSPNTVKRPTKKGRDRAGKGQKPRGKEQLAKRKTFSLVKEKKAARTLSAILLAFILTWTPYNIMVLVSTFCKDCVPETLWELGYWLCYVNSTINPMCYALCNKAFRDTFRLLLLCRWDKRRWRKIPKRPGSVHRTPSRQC

With `CN1C(=O)[C@@H](N2CCc3c(nn(Cc4ccccc4)c3Br)C2=O)COc2ccccc21` [TP-030-2] the inhibition [1] was 10%, the IC50 [2] was 1000 nM and the IC50 [3] was 1000 nM. For the same molecule, the inhibition [4] was 6%, the IC50 [5] was 1000 nM and the inhibition [6] was 2.4%. For the same molecule, the IC50 (Aurora kinase A) was 1000 nM, the IC50 [7] was 1000 nM and the IC50 [8] was 1000 nM. The inhibition [9] was -4%, the inhibition at 3 h, 10 µM [10] was 16% (not active) and the IC50 (Ephrin type-B receptor 2) was 1000 nM. For the same molecule, the IC50 (Ephrin type-A receptor 1) was 1000 nM, the IC50 (Ephrin type-A receptor 7) was 1000 nM and the inhibition [11] was 14.6%. For the same molecule, the IC50 [12] was 1000 nM, the IC50 (Activin receptor type-1) was 1000 nM and the IC50 [13] was 1000 nM. The IC50 [14] was 1000 nM, the IC50 [15] was 1000 nM and the inhibition [16] was 8.9%. For the same molecule, the IC50 [17] was 1000 nM, the inhibition [18] was -8% and the IC50 [19] was 1000 nM. For the same molecule, the inhibition [20] was -2%, the IC50 [21] was 1000 nM and the IC50 [22] was 1000 nM. It also gave an IC50 [23] of 1000 nM, an inhibition [24] of 9% and an IC50 [25] of 1000 nM. For the same molecule, the IC50 [26] was 1000 nM, the inhibition [27] was 7% and the IC50 [28] was 1000 nM. The IC50 [29] was 1000 nM, the inhibition (Mus musculus) was 7% and the IC50 [30] was 1000 nM. For the same molecule, the IC50 [31] was 1000 nM, the IC50 [32] was 1000 nM and the IC50 [33] was 1000 nM. It also gave an IC50 (Aurora kinase B) of 1000 nM, an inhibition [34] of 59.6% and an inhibition [35] of 5%.
